≈ marks a conversion by molar mass, not a printed value. Positions of bridges follow the written chain, without caps; N, C: chain ends. Non-standard residues stand in square brackets, D forms with d. Residues, ends and D or L forms follow the SMILES beside them. *: point of attachment. Heptanoyl(6-Me) = CC(C)CCCCC(=O)*; Nonanoyl = CCCCCCCCC(=O)*; X1 = CC[C@H](C)CCCCC(=O)*; Heptanoyl = CCCCCCC(=O)*; Octanoyl = CCCCCCCC(=O)*; Dab = NCC[C@H](N)C(=O)O; Abu = CC[C@H](N)C(=O)O; Dap = NC[C@H](N)C(=O)O
Legend:
[1] = tested on: Acinetobacter baumannii
Summary of the method: (§1)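 Read-out is the MIC, obtained by broth microdilution under CLSI guidance. Lipopeptides (TFA salt form) were diluted in cation-adjusted Mueller-Hinton broth, with polymyxin B sulphate run alongside as control.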

[2] = tested on: Klebsiella pneumoniae
Summary of the method: as §1

[3] = tested on: Enterobacter cloacae
Summary of the method: as §1

[4] = tested on: Pseudomonas aeruginosa
Summary of the method: as §1

[5] = tested on: P. aeruginosa ATCC 27853; test: In vivo efficacy in mouse blood infection model (neutropenic Swiss mice); conditions: compound, free base 4 mg/kg intravenously 2 h after inoculation, blood at 4 h
Summary of the method: (§2)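 Neutropenic Swiss mice (cyclophosphamide 150 mg/kg day −4, 100 mg/kg day −1, i.p.) infected i.v. with early log-phase bacteria; 4 mg/kg free base i.v. given 2 h post-inoculation. Blood CFU by cardiac puncture 4 h post-dose; Δlog10 CFU/mL treated versus saline controls.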

[6] = tested on: K. pneumoniae FADDI-KP032; test: as above; conditions: compound, free base 4 mg/kg intravenously 2 h after inoculation, blood at 4 h
Summary of the method: as §2

[7] = tested on: A. baumannii ATCC 19606; test: as above; conditions: compound, free base 4 mg/kg intravenously 2 h after inoculation, blood at 4 h
Summary of the method: as §2

Compound	MIC [1] [mg/L]	Minimum inhibitory concentration, Ab A ATCC 17978 [1] [mg/L]	Minimum inhibitory concentration, Ab ATCC 19606 [1] [mg/L]	Minimum inhibitory concentration, Ab FADDI-AB034 [1] [mg/L]	MIC [2] [mg/L]	Minimum inhibitory concentration, Ec FADDI-EC001 [3] [mg/L]	Minimum inhibitory concentration, Ec FADDI-EC003 [3] [mg/L]	Minimum inhibitory concentration, Ec FADDI-EC006 [3] [mg/L]	MIC [4] [mg/L]	Minimum inhibitory concentration, Pa ATCC 27853 [4] [mg/L]	Minimum inhibitory concentration, Pa FADDI-PA022 [4] [mg/L]	Minimum inhibitory concentration, Pa FADDI-PA025 [4] [mg/L]	Δ log (Treated-Control at 4 h) [5] [log10 CFU/mL]	Δ log (Treated-Control at 4 h) [6] [log10 CFU/mL]	Δ log (Treated-Control at 4 h) [7] [log10 CFU/mL]	Minimum inhibitory concentration (MIC), Ab ATCC 17978 [1] [mg/L]	Minimum inhibitory concentration (MIC), Ab ATCC 19606 [1] [mg/L]	Minimum inhibitory concentration (MIC), Ab FADDI-AB034 [1] [mg/L]	Minimum inhibitory concentration (MIC), Ec FADDI-EC001 [3] [mg/L]	Minimum inhibitory concentration (MIC), Ec FADDI-EC003 [3] [mg/L]	further results
CCCCCCCC(=O)N[C@@H](CCN)C(=O)N[C@H](C(=O)N[C@@H](CN)C(=O)N[C@H]1CCNC(=O)[C@H]([C@@H](C)O)NC(=O)[C@H](CCN)NC(=O)[C@H](CCN)NC(=O)[C@H]([C@@H](C)O)NC(=O)[C@@H](Cc2ccccc2)NC(=O)[C@H](CCN)NC1=O)[C@@H](C)O [Compound 129] (Octanoyl-[Dab]T[Dap][Dab][Dab][dF]T[Dab][Dab]T; lactam 4-C)	0.5 (≈ 0.43 µM)	0.25 (≈ 0.215 µM)	0.5 (≈ 0.43 µM)	0.25 (≈ 0.215 µM)	<0.125	0.5 (≈ 0.43 µM)	<0.125	0.5 (≈ 0.43 µM)	0.5 (≈ 0.43 µM)	0.5 (≈ 0.43 µM)	1 (≈ 0.86 µM)	2 (≈ 1.72 µM)	−3.45	−3.64	−1.42	–	–	–	–	–	–
CCCCCCC(=O)N[C@@H](CCN)C(=O)N[C@H](C(=O)N[C@@H](CN)C(=O)N[C@H]1CCNC(=O)[C@H]([C@@H](C)O)NC(=O)[C@H](CCN)NC(=O)[C@H](CCN)NC(=O)[C@H](CC)NC(=O)[C@@H](Cc2ccccc2)NC(=O)[C@H](CCN)NC1=O)[C@@H](C)O [Compound 131] (Heptanoyl-[Dab]T[Dap][Dab][Dab][dF][Abu][Dab][Dab]T; lactam 4-C)	0.25 (≈ 0.221 µM)	0.25 (≈ 0.221 µM)	0.25 (≈ 0.221 µM)	0.25 (≈ 0.221 µM)	<0.125	<0.125	<0.125	<0.125	0.5 (≈ 0.441 µM)	0.5 (≈ 0.441 µM)	2 (≈ 1.76 µM)	4 (≈ 3.53 µM)	−3.80	−3.44	−1.75	–	–	–	–	–	–
CCCCCCCCC(=O)N[C@@H](CCN)C(=O)N[C@H](C(=O)N[C@@H](CN)C(=O)N[C@H]1CCNC(=O)[C@H]([C@@H](C)O)NC(=O)[C@H](CCN)NC(=O)[C@H](CCN)NC(=O)[C@H](C)NC(=O)[C@@H](CC(C)C)NC(=O)[C@H](CCN)NC1=O)[C@@H](C)O [Compound 132] (Nonanoyl-[Dab]T[Dap][Dab][Dab][dL]A[Dab][Dab]T; lactam 4-C)	0.5 (≈ 0.449 µM)	0.5 (≈ 0.449 µM)	0.5 (≈ 0.449 µM)	0.25 (≈ 0.225 µM)	0.25 (≈ 0.225 µM)	0.25 (≈ 0.225 µM)	<0.125	<0.125	0.5 (≈ 0.449 µM)	0.5 (≈ 0.449 µM)	1 (≈ 0.898 µM)	4 (≈ 3.59 µM)	−4.39	−3.16	−1.58	–	–	–	–	–	–
CC[C@H](C)CCCCC(=O)N[C@@H](CCN)C(=O)N[C@H](C(=O)N[C@H](CO)C(=O)N[C@H]1CCNC(=O)[C@H]([C@@H](C)O)NC(=O)[C@H](CCN)NC(=O)[C@H](CCN)NC(=O)[C@H]([C@@H](C)O)NC(=O)[C@@H](CC(C)C)NC(=O)[C@H](CCN)NC1=O)[C@@H](C)O [Compound 150, polymyxin D1] (X1-[Dab]T[dS][Dab][Dab][dL]T[Dab][Dab]T; lactam 4-C)	0.25 (≈ 0.218 µM)	–	–	–	0.5 (≈ 0.437 µM)	–	–	–	4 (≈ 3.5 µM)	–	–	–	−0.29	−3.77	−1.46	0.25 (≈ 0.218 µM)	0.25 (≈ 0.218 µM)	0.25 (≈ 0.218 µM)	0.5 (≈ 0.437 µM)	0.5 (≈ 0.437 µM)	Minimum inhibitory concentration (MIC), Ec FADDI-EC006 [3]: 0.5 mg/L (≈ 0.437 µM); Minimum inhibitory concentration (MIC), Pa ATCC 27853 [4]: 4 mg/L (≈ 3.5 µM); Minimum inhibitory concentration (MIC), Pa FADDI-PA022 [4]: 4 mg/L (≈ 3.5 µM); Minimum inhibitory concentration (MIC), Pa FADDI-PA025 [4]: >32 mg/L
CC(C)CCCCC(=O)N[C@@H](CCN)C(=O)N[C@H](C(=O)N[C@H](CO)C(=O)N[C@H]1CCNC(=O)[C@H]([C@@H](C)O)NC(=O)[C@H](CCN)NC(=O)[C@H](CCN)NC(=O)[C@H]([C@@H](C)O)NC(=O)[C@@H](CC(C)C)NC(=O)[C@H](CCN)NC1=O)[C@@H](C)O [Compound 151, polymyxin D2] ({Heptanoyl(6-Me)}-[Dab]T[dS][Dab][Dab][dL]T[Dab][Dab]T; lactam 4-C)	0.5 (≈ 0.442 µM)	–	–	–	0.5 (≈ 0.442 µM)	–	–	–	4 (≈ 3.54 µM)	–	–	–	−0.40	−4.71	−1.59	0.25 (≈ 0.221 µM)	0.5 (≈ 0.442 µM)	0.5 (≈ 0.442 µM)	0.25 (≈ 0.221 µM)	0.25 (≈ 0.221 µM)	Minimum inhibitory concentration (MIC), Ec FADDI-EC006 [3]: 0.25 mg/L (≈ 0.221 µM); Minimum inhibitory concentration (MIC), Pa ATCC 27853 [4]: 4 mg/L (≈ 3.54 µM); Minimum inhibitory concentration (MIC), Pa FADDI-PA022 [4]: 4 mg/L (≈ 3.54 µM); Minimum inhibitory concentration (MIC), Pa FADDI-PA025 [4]: >32 mg/L
CC[C@H](C)CCCCC(=O)N[C@@H](CCN)C(=O)N[C@H](C(=O)N[C@@H](CCN)C(=O)N[C@H]1CCNC(=O)[C@H]([C@@H](C)O)NC(=O)[C@H](CCN)NC(=O)[C@H](CCN)NC(=O)[C@H]([C@@H](C)O)NC(=O)[C@@H](CC(C)C)NC(=O)[C@H](CCN)NC1=O)[C@@H](C)O [Compound 152, polymyxin M1] (X1-[Dab]T[Dab][Dab][Dab][dL]T[Dab][Dab]T; lactam 4-C)	1 (≈ 0.864 µM)	–	–	–	0.5 (≈ 0.432 µM)	–	–	–	1 (≈ 0.864 µM)	–	–	–	−3.24	−3.86	−1.61	1 (≈ 0.864 µM)	1 (≈ 0.864 µM)	1 (≈ 0.864 µM)	0.5 (≈ 0.432 µM)	0.5 (≈ 0.432 µM)	Minimum inhibitory concentration (MIC), Ec FADDI-EC006 [3]: 0.25 mg/L (≈ 0.216 µM); Minimum inhibitory concentration (MIC), Pa ATCC 27853 [4]: 1 mg/L (≈ 0.864 µM); Minimum inhibitory concentration (MIC), Pa FADDI-PA022 [4]: 1 mg/L (≈ 0.864 µM); Minimum inhibitory concentration (MIC), Pa FADDI-PA025 [4]: 32 mg/L (≈ 27.6 µM)
